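Cultured in 96-well plates, cells were exposed to test compound for 48 hours across five concentrations. GI50 is the concentration that inhibits growth by half. At the TGI there is no net growth.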
Assays:
Test in all cases: NCI anticancer screen, dose series, 48 h
PC-3 prostate = tested on: PC-3 prostate
BT-549 breast = tested on: BT-549 breast
SK-MEL-28 melanoma = tested on: SK-MEL-28 melanoma
KM12 colon = tested on: KM12 colon
CAKI-1 renal = tested on: CAKI-1 renal
HL-60(TB) leukemia = tested on: HL-60(TB) leukemia
LOX IMVI melanoma = tested on: LOX IMVI melanoma
U251 CNS = tested on: U251 CNS
MALME-3M melanoma = tested on: MALME-3M melanoma
OVCAR-4 ovarian = tested on: OVCAR-4 ovarian

| Compound | GI50 (PC-3 prostate) | TGI (PC-3 prostate) | GI50 (BT-549 breast) | TGI (BT-549 breast) | GI50 (SK-MEL-28 melanoma) | TGI (SK-MEL-28 melanoma) | GI50 (KM12 colon) | TGI (KM12 colon) | GI50 (CAKI-1 renal) | TGI (CAKI-1 renal) | GI50 (HL-60(TB) leukemia) | TGI (HL-60(TB) leukemia) | GI50 (LOX IMVI melanoma) | TGI (LOX IMVI melanoma) | GI50 (U251 CNS) | TGI (U251 CNS) | GI50 (MALME-3M melanoma) | TGI (MALME-3M melanoma) | GI50 (OVCAR-4 ovarian) | TGI (OVCAR-4 ovarian) |
| --- | --- | --- | --- | --- | --- | --- | --- | --- | --- | --- | --- | --- | --- | --- | --- | --- | --- | --- | --- | --- |
| C[C@H]1c2cccc(O)c2C(O)=C2C(=O)[C@]3(O)C(O)=C(C(N)=O)C(=O)[C@@H](N(C)C)[C@@H]3[C@@H](O)[C@@H]21 | 3 µM | 12.8 µM | 3.12 µM | 9.88 µM | 4.14 µM | 16.4 µM | 3.37 µM | 11.5 µM | 2.08 µM | 8.67 µM | 2.3 µM | 6.56 µM | 2.75 µM | 10 µM | 2.98 µM | 11.9 µM | 2.76 µM | 8.57 µM | 3.34 µM | 42.1 µM |
| CC(C)c1ccc(Nc2ccc3c(OCCCN4CCN(C)CC4)cccc3n2)cc1 | 12.9 µM | 31.4 µM | 12.3 µM | 28.7 µM | 1.89 µM | 4.32 µM | 11.3 µM | 25.6 µM | 12.6 µM | 28.8 µM | 10.5 µM | 28.8 µM | 1.86 µM | 3.54 µM | 3.28 µM | 10.3 µM | 3.66 µM | 16.6 µM | 13.9 µM | 28.5 µM |
| COc1ncnc(C2CC2)c1-c1ncc2cnn(Cc3ccc(-c4nc(C(F)(F)F)cn4C(C)C)cc3)c2n1 | 17.5 µM | > 100 µM | 21 µM | 80.5 µM | 19.1 µM | 71.3 µM | 23.4 µM | 81.8 µM | 14.2 µM | > 100 µM | 31 µM | > 100 µM | 14.8 µM | 31.7 µM | 25.7 µM | > 100 µM | 17.8 µM | 57.3 µM | 14.2 µM | 75.6 µM |
| O=c1c2ccccc2[se]n1-c1cccnc1 |  | 48.6 µM |  | 84.6 µM |  | 81 µM |  | > 100 µM |  | > 100 µM |  | 91.5 µM |  | 56.8 µM |  | 76 µM |  | 50.7 µM |  | > 100 µM |
| CCN1CCN(c2ccc(Nc3cc(N(C)C(=O)Nc4c(Cl)c(OC)cc(OC)c4Cl)ncn3)cc2)CC1 | 3.52 µM | 19.2 µM | 1.04 µM | 21.1 µM | 1.87 µM | 3.46 µM | 4.47 µM | 18.7 µM | 4.19 µM | > 48.2 µM | 2.14 µM | 4.42 µM | 1.48 µM | 2.91 µM | 1.47 µM | 3.71 µM | 1.82 µM | 3.5 µM | 0.851 µM | 12.1 µM |
| O=S(=O)([O-])c1ccc2c(c1)-c1nc-2nc2[n-]c(nc3nc(nc4[n-]c(n1)c1ccc(S(=O)(=O)[O-])cc41)-c1cc(S(=O)(=O)[O-])ccc1-3)c1ccc(S(=O)(=O)[O-])cc21.[Cu+2].[Na+] | 9.44 µM | > 100 µM | 47.4 µM | > 100 µM | > 100 µM | > 100 µM | 8.36 µM | > 76.8 µM | > 100 µM | > 100 µM | 0.174 µM | > 17.7 µM | 3.29 µM | > 100 µM | 40.3 µM | > 100 µM | > 100 µM | > 100 µM | 5.31 µM | > 80.4 µM |
| O=C(OCc1ccc2cccc(O)c2n1)N1CCN(C(=O)c2cc3cc(F)ccc3[nH]2)CC1 | 0.513 µM | 2.02 µM | 1 µM | 2.21 µM | 1.68 µM | 3.05 µM | 1.61 µM | 3.46 µM | 0.354 µM | 1.66 µM | 1.31 µM | 3.47 µM | 1.36 µM | 2.75 µM | 1.41 µM | 2.74 µM | 1.46 µM | 2.78 µM | 1.35 µM | 2.74 µM |
| COc1ccc(N2C(=O)C(c3ccccc3)(c3ccccc3)C23C(=O)N(C)c2ccccc23)cc1 (stereo not given) | > 100 µM | > 100 µM | > 100 µM | > 100 µM | > 100 µM | > 100 µM | > 100 µM | > 100 µM | > 100 µM | > 100 µM | > 100 µM | > 100 µM | > 100 µM | > 100 µM | > 100 µM | > 100 µM | > 100 µM | > 100 µM | > 100 µM | > 100 µM |
| Clc1coc2nc3ccccc3c(Nc3ccc4c(c3)OCO4)c12 | 1.93 µM | 13.5 µM | 5.19 µM | 27 µM | 3.49 µM | > 71.4 µM | 0.997 µM | 12.5 µM | 1.51 µM | 10.6 µM | 0.808 µM | 8.82 µM | 2.01 µM | 13.6 µM | 1.12 µM | 11.5 µM | 0.795 µM | 8.67 µM | 22.8 µM | > 100 µM |
| C=C(F)C(=O)N1CCN(c2nc(OC[C@@H]3CCCN3C)nc3c2CCN(c2cccc4cccc(Cl)c24)C3)C[C@@H]1CC#N | 0.855 µM | 2.44 µM | 2.19 µM | 4.57 µM | 1.32 µM | 2.72 µM | 1.2 µM | 2.56 µM | 0.926 µM | 2.44 µM | 0.86 µM | 2.5 µM | 1.13 µM | 2.47 µM | 1.02 µM | 2.21 µM | 1.47 µM | 2.98 µM | 0.994 µM | 3.3 µM |
| O=S(=O)(Nc1cc(F)cc(Cl)c1)c1ccc(-c2cnc(C3CC3)o2)cc1 | 1.25 µM | 14.3 µM | 0.933 µM | 18.8 µM | 10.3 µM | 23.7 µM | 0.614 µM | 16.7 µM | 0.595 µM | 17.5 µM | 0.761 µM | 24.2 µM | 2.5 µM | 20.8 µM | 1.55 µM | 15.2 µM | 2.53 µM | 28 µM | 5.64 µM | 21.9 µM |
| Cn1cc(C2=C(c3ccc4ccccc4c3)C(=O)NC2=O)c2ccccc21 | > 25 µM | > 25 µM | > 25 µM | > 25 µM | > 25 µM | > 25 µM | 12.5 µM | > 25 µM | > 16.7 µM | > 25 µM | > 21.4 µM | > 25 µM | > 25 µM | > 25 µM | > 25 µM | > 25 µM | > 22.1 µM | > 25 µM | > 25 µM | > 25 µM |
